Source: patent US20250243488A1, “METHODS OF MODULATING PROGRANULIN EXPRESSION USING ANTISENSE OLIGONUCLEOTIDES TARGETING REGULATORY RNAS” (Camp4 Therapeutics Corporation, priority 2022, published 2025)
Oligonucleotides are written 5' to 3', each unit as a sugar letter and its base; * is a phosphorothioate linkage, no mark a phosphodiester; rarer units and linkages stand in square brackets, end groups in braces. Plain capitals give the bases only. e = 2'-O-(2-methoxyethyl) (MOE); [5mC] = 5-methylcytosine

What follows are substances tested on GRN mRNA (assay: GRN mRNA qPCR in SK-N-AS cells transfected with ASOs). Conditions: Table 6; SK-N-AS, 30 nM; normalized to CO-3772, CO-1589 and CO-1929.
Assay type: cell-based, human
Procedure: The best ASOs based on increased GRN mRNA fold-change were selected for further characterization in dose titration studies. Briefly, human neuroblastoma SK-N-AS cells were transfected with 20 to 160 nM of ASOs CO-3423, CO-3431, CO-3463, and CO-3503. A steric non-targeting control ASO (sNTC) was used as a control. Cells were collected for mRNA analysis after 48 hours and GRN mRNA quantified by qPCR. Housekeeping genes for normalization were GAPDH and PPIA, and mRNA fold change (FC) was normalized to sNTC.
36 additional ASOs were designed with different modifications and base walking around selected ASOs. The effect of increasing doses of these ASOs was assessed in the human neuroblastoma cell line SK-N-AS following transfection. Relative GRN mRNA levels in SK-N-AS cells after treatment was assessed 48-hours post-transfection, and data from exemplary ASOs is shown in FIGS. 5A and 5B.
Additional chemical modifications, including LNA, modifications were made to CO-3423. SK-N-AS cells were transfected with increasing concentrations of the LNA/PS modified ASOs and GRN mRNA quantified by qPCR. ASOs including different LNA modifications of CO-3423 had similar efficacy (i.e, similar increased GRN mRNA expression). GRN mRNA was normalized to the average fold-change of cells treated with two steric non-targeting control ASOs (CO-3772 and CO-1589 (sNTC1)).
The effect of ASO length on GRN gene expression modulation was also investigated. SK-N-AS cells were transfected with increasing concentrations of the longer ASOs and GRN mRNA quantified by qPCR. Increasing the length of CO-3423 increased the potency of the ASO, as shown in Table 4. mRNA was normalized to the average fold change of cells treated with two steric non-targeting control ASOs (CO-3772 and CO-1589 (sNTC1)).
To determine whether variations in the PO/PS internucleotide bond linkages impacted the ability of CO-3423 and CO-3431 to modulate gene expression, several modified ASOs based on these parent ASOs were prepared. SK-N-AS cells were transfected with increasing concentrations of the mixed PO/PS bond ASOs described in Tables 5 and 6, and GRN mRNA quantified by qPCR.
GRN mRNA fold-change after treatment with mixed PO/PS bond versions of CO-3423 is shown in Table 5. mRNA was normalized to the average fold change of cells treated with steric nontargeting controls (CO-3772, CO-1589 (sNTC1), and CO-1929 (sNTC3)).
GRN mRNA fold-change after treatment with mixed PO/PS bond versions of CO-3431 is shown in Table 6. mRNA was normalized as described above.
To further assess the effect of additional modifications on the ability of CO-3423 parent ASO to modulate GRN gene expression, additional LNA tiling and PO bond modifications were incorporated to CO-3423. SK-N-AS cells were transfected with increasing concentrations of the modified ASOs and GRN mRNA quantified by qPCR. CO-3423 was used for comparison. GRN mRNA was normalized to the average fold-change of cells treated with a steric non-targeting control ASO, CO-1589 (sNTC1).
To further assess the effect of modifications on the ability of CO-3463 parent ASO to modulate GRN gene expression, ASOs based on this ASOS incorporating additional LNA modifications were prepared and compared to […]. SK-N-AS cells were transfected with increasing concentrations of the ASOs and GRN mRNA quantified by qPCR. GRN mRNA was normalized to the average fold-change of cells treated with a steric non-targeting control ASO, CO-1589 (sNTC1).
68 additional ASOs were designed to target intergenic enhancers (eRNA). 48 hours post-transfection, the cells were collected for GRN mRNA analysis using qPCR. CO-1589, a steric nontargeting control ASO, was used as a control. GRN mRNA was normalized to cells treated with CO-1589.
The best hits from these ASOs were tested in a dose escalation study. Cells were incubated for 48 hours. Subsequently, the cells were collected for mRNA quantification via RT-qPCR. […]

Row | Substance | 30 nM FC (GRN mRNA) [FC]
1 | CO-4456: mixed PO/PS bond version of CO-3431 (antisense eA*eT*eTeGe[5mC]eAeG*eT*eG*eA*e[5mC]*eG*e[5mC]*e[5mC]e[5mC]e[5mC]eGeT*eT*eA) | 0.7
2 | CO-4457: mixed PO/PS bond version of CO-3431 (antisense eA*eT*eTeGe[5mC]eAeGeTeGeAe[5mC]eGe[5mC]e[5mC]e[5mC]e[5mC]eGeT*eT*eA) | 0.2

Same assay, conditions: Table 6; SK-N-AS, 60 nM; normalized to CO-3772, CO-1589 and CO-1929

Row | Substance | 60 nM FC (GRN mRNA) [FC]
3 | CO-4456: mixed PO/PS bond version of CO-3431 (antisense eA*eT*eTeGe[5mC]eAeG*eT*eG*eA*e[5mC]*eG*e[5mC]*e[5mC]e[5mC]e[5mC]eGeT*eT*eA) | 0.5
4 | CO-4457: mixed PO/PS bond version of CO-3431 (antisense eA*eT*eTeGe[5mC]eAeGeTeGeAe[5mC]eGe[5mC]e[5mC]e[5mC]e[5mC]eGeT*eT*eA) | 0.1

Same assay, conditions: Table 6; SK-N-AS, 120 nM; normalized to CO-3772, CO-1589 and CO-1929

Row | Substance | 120 nM FC (GRN mRNA) [FC]
5 | CO-4456: mixed PO/PS bond version of CO-3431 (antisense eA*eT*eTeGe[5mC]eAeG*eT*eG*eA*e[5mC]*eG*e[5mC]*e[5mC]e[5mC]e[5mC]eGeT*eT*eA) | 0.4
6 | CO-4457: mixed PO/PS bond version of CO-3431 (antisense eA*eT*eTeGe[5mC]eAeGeTeGeAe[5mC]eGe[5mC]e[5mC]e[5mC]e[5mC]eGeT*eT*eA) | 0.1

Same assay, conditions: Table 9; SK-N-AS, 120 nM, 48 hours post-transfection; normalized to CO-1589

Row | Substance | hGRN mRNA FC [FC]
7 | CO-4585: ASO designed to target intergenic enhancers (eRNA) (antisense eT*e[5mC]*eG*eA*eA*eT*e[5mC]*eT*e[5mC]*e[5mC]*eG*eG*e[5mC]*eT*e[5mC]*eT*eT*e[5mC]*eA*e[5mC]) | 1.4
8 | CO-4586: ASO designed to target intergenic enhancers (eRNA) (antisense eT*eG*eA*e[5mC]*eA*eA*eG*e[5mC]*eG*eG*eG*eA*eT*e[5mC]*eG*eG*eA*eG*eA*eG) | 0.9
9 | CO-4587: ASO designed to target intergenic enhancers (eRNA) (antisense eT*eT*e[5mC]*eT*eA*eA*eA*e[5mC]*eG*e[5mC]*eG*eA*eA*eG*eT*eG*eG*eG*eT*eG) | 1.2
10 | CO-4588: ASO designed to target intergenic enhancers (eRNA) (antisense eG*e[5mC]*eT*eG*eG*eT*eT*eT*e[5mC]*eT*e[5mC]*eT*eG*eT*eT*eA*eG*eG*eA*e[5mC]) | 0.9
11 | CO-4589: ASO designed to target intergenic enhancers (eRNA) (antisense e[5mC]*eG*e[5mC]*eA*eG*eG*e[5mC]*eT*eA*eG*eG*eA*eG*eT*eA*e[5mC]*e[5mC]*e[5mC]*eA*eT) | 1.1
12 | CO-4590: ASO designed to target intergenic enhancers (eRNA) (antisense eG*eT*e[5mC]*eA*eA*eA*eG*eT*e[5mC]*eG*eA*eG*eG*e[5mC]*e[5mC]*eT*eA*e[5mC]*e[5mC]*e[5mC]) | 1.3
13 | CO-4591: ASO designed to target intergenic enhancers (eRNA) (antisense eG*eA*eT*eA*eG*eT*eT*eG*eG*e[5mC]*e[5mC]*e[5mC]*e[5mC]*eT*e[5mC]*eG*eG*eA*eG*eT) | 1.1
14 | CO-4592: ASO designed to target intergenic enhancers (eRNA) (antisense eG*eG*eT*e[5mC]*eA*e[5mC]*eA*eG*eA*eT*eT*eG*e[5mC]*eA*e[5mC]*eT*e[5mC]*eT*e[5mC]*e[5mC]) | 1.1
15 | CO-4593: ASO designed to target intergenic enhancers (eRNA) (antisense eT*eT*eT*eT*eG*e[5mC]*e[5mC]*e[5mC]*eA*eG*e[5mC]*eG*e[5mC]*e[5mC]*e[5mC]*e[5mC]*eT*eT*eT*eA) | 0.8
16 | CO-4594: ASO designed to target intergenic enhancers (eRNA) (antisense eA*eA*eA*eG*eG*eA*e[5mC]*eG*e[5mC]*e[5mC]*eT*eT*e[5mC]*eT*e[5mC]*eT*e[5mC]*eG*eG*eG) | 1.3
17 | CO-4595: ASO designed to target intergenic enhancers (eRNA) (antisense eA*eG*e[5mC]*e[5mC]*e[5mC]*eG*eA*e[5mC]*e[5mC]*eT*eT*eG*eA*e[5mC]*eT*eG*eA*eT*eA*eG) | 1.0
18 | CO-4596: ASO designed to target intergenic enhancers (eRNA) (antisense e[5mC]*eA*eA*e[5mC]*eT*eA*eT*e[5mC]*eA*eG*eT*e[5mC]*eA*eA*eG*eG*eT*e[5mC]*eG*eG) | 1.0
19 | CO-4597: ASO designed to target intergenic enhancers (eRNA) (antisense eA*eG*eG*e[5mC]*eG*eT*e[5mC]*e[5mC]*eT*eT*eT*e[5mC]*e[5mC]*eA*eT*eT*e[5mC]*e[5mC]*e[5mC]*eT) | 0.9
20 | CO-4598: ASO designed to target intergenic enhancers (eRNA) (antisense eG*eT*eG*e[5mC]*eA*eA*eT*e[5mC]*eT*eG*eT*eG*eA*e[5mC]*e[5mC]*eT*eG*eT*eA*eA) | 1.1
21 | CO-4599: ASO designed to target intergenic enhancers (eRNA) (antisense eG*eG*e[5mC]*e[5mC]*eA*eA*e[5mC]*eT*eA*eT*e[5mC]*eA*eG*e[5mC]*eT*eT*eT*e[5mC]*e[5mC]*e[5mC]) | 1.0
22 | CO-4600: ASO designed to target intergenic enhancers (eRNA) (antisense eT*eT*eA*eG*e[5mC]*eA*e[5mC]*eG*eT*eG*eG*eA*e[5mC]*eT*e[5mC]*e[5mC]*eG*eA*eG*eG) | 1.0
23 | CO-4601: ASO designed to target intergenic enhancers (eRNA) (antisense eG*eT*eA*eG*eG*e[5mC]*e[5mC]*eT*e[5mC]*eG*eA*e[5mC]*eT*eT*eT*eG*eA*e[5mC]*eG*eT) | 1.0
24 | CO-4602: ASO designed to target intergenic enhancers (eRNA) (antisense eT*eA*e[5mC]*eT*e[5mC]*e[5mC]*eT*eA*eG*e[5mC]*e[5mC]*eT*eG*e[5mC]*eG*e[5mC]*e[5mC]*eT*eT*eT) | 1.2
25 | CO-4603: ASO designed to target intergenic enhancers (eRNA) (antisense e[5mC]*e[5mC]*eA*e[5mC]*eT*eT*e[5mC]*eG*e[5mC]*eG*eT*eT*eT*eA*eG*eA*eA*e[5mC]*eT*eT) | 1.3
26 | CO-4604: ASO designed to target intergenic enhancers (eRNA) (antisense eT*e[5mC]*eT*e[5mC]*e[5mC]*eG*eA*eT*e[5mC]*e[5mC]*e[5mC]*eG*e[5mC]*eT*eT*eG*eT*e[5mC]*eA*eG) | 1.2
27 | CO-4605: ASO designed to target intergenic enhancers (eRNA) (antisense e[5mC]*eG*eG*eG*eA*eG*eA*e[5mC]*eA*eG*eG*eA*eA*eG*eG*e[5mC]*eT*eT*eA*eA) | 1.2
